In patent publication US20120058989A1, “ANTIBACTERIAL FLUOROQUINOLONE ANALOGS” (Achaogen, Inc., priority 2008, published 2012):
Converted amounts (≈) assume the structure as drawn.

Columns and labels:
Test in all cases: MIC, CLSI broth microdilution
Type in all cases: cell-based
[1] = system: P. aeruginosa APAE054 (Fluoroquinolone-resistant); settings: for MIC APAE 054: Table 2
Description: (§1) Minimum inhibitory concentrations (MIC) were determined by reference Clinical and Laboratory Standards Institute (CLSI) broth microdilution methods per M7-A7 [2006]. Quality control ranges utilizing E. coli ATCC 25922, P. aeruginosa ATCC 27853 and S. aureus ATCC 29213, and interpretive criteria for comparator agents were as published in CLSI M100-S17 [2007]. Briefly, serial two-fold dilutions of the test compounds were prepared at 2× concentration in Mueller Hinton Broth. The compound dilutions were mixed in 96-well assay plates in a 1:1 ratio with bacterial inoculum. The inoculum was prepared by suspension of a colony from an agar plate that was prepared the previous day. Bacteria were suspended in sterile saline and added to each assay plate to obtain a final concentration of 5×10^5 CFU/mL. The plates were incubated at 35° C. for 20 hours in ambient air.

[2] = system: S. pneumoniae ASPN1027 (Fluoroquinolone-resistant); settings: for MIC ASPN 1027: Table 2
Description: as §1

[3] = system: A. baumannii AABA1065 (Fluoroquinolone-susceptible); settings: for MIC AABA 1065: Table 2; for MIC: Acinetobacter baumannii, Table 2, read-out: MIC AABA 1065
Description: as §1

[4] = system: S. aureus ASAU1031 (Fluoroquinolone-resistant); settings: for MIC ASAU 1031: Table 2
Description: as §1

[5] = system: S. aureus ASAU001 (Fluoroquinolone-susceptible, ATCC29213); settings: for MIC ASAU 001: Table 2; for MIC: Staphylococcus aureus, Table 2, read-out: MIC ASAU 001
Description: as §1

[6] = system: S. pneumoniae ASPN001 (Fluoroquinolone-susceptible, ATCC49619); settings: for MIC ASPN 001: Table 2
Description: as §1

[7] = system: A. baumannii AABA1009 (Fluoroquinolone-resistant); settings: for MIC AABA 1009: Table 2
Description: as §1

[8] = system: P. aeruginosa APAE001 (Fluoroquinolone-susceptible, ATCC27853); settings: for MIC APAE 001: Table 2; for MIC: Pseudomonas aeruginosa, Table 2, read-out: MIC APAE 001
Description: as §1

[9] = system: E. coli AECO066 (Fluoroquinolone-resistant); settings: for MIC AECO 066: Table 2; for MIC: Escherichia coli, Table 2, read-out: MIC AECO 066
Description: as §1

[10] = system: E. coli AECO001 (Fluoroquinolone susceptible, ATCC25922); settings: Table 2, 35° C., 20 hours; for MIC: Escherichia coli, read-out: MIC AECO 001
Description: as §1

| SMILES | MIC APAE 054 [1] | MIC ASPN 1027 [2] | MIC AABA 1065 [3] | MIC ASAU 001 [5] | MIC ASPN 001 [6] | MIC AABA 1009 [7] | MIC AECO 066 [9] | MIC AECO 001 [10] | MIC ([1]; Pseudomonas aeruginosa, Table 2, read-out: MIC APAE 054) [µg/mL] | MIC ([2]; Streptococcus pneumoniae, Table 2, read-out: MIC ASPN 1027) [µg/mL] | MIC [3] [µg/mL] | MIC ([4]; Staphylococcus aureus, Table 2, read-out: MIC ASAU 1031) [µg/mL] | MIC [5] [µg/mL] | MIC ([6]; Streptococcus pneumoniae, Table 2, read-out: MIC ASPN 001) [µg/mL] | MIC ([7]; Acinetobacter baumannii, Table 2, read-out: MIC AABA 1009) [µg/mL] | MIC [8] [µg/mL] | MIC [9] [µg/mL] | MIC [10] [µg/mL] | MIC ASAU 1031 [4] | MIC APAE 001 [8] |
| --- | --- | --- | --- | --- | --- | --- | --- | --- | --- | --- | --- | --- | --- | --- | --- | --- | --- | --- | --- | --- |
| CCNC1CC2CCCc3c(c(F)cc4c(=O)c(C(=O)O)cn(C5CC5)c34)N2C1.O=C(O)C(F)(F)F (mixture of isomers) [7B/20, (9S)-4-cyclopropyl-9-(ethylamino)-12-fluoro-1-oxo-4,5,6,7,7a,8,9,10-octahydro-1H-pyrrolo[1′,2′:1,7]-azepino[2,3-h]quinoline-2-carboxylic acid trifluoroacetate] | C (MIC's of greater than 8.0 μg/mL = C) | C (MIC's of greater than 8.0 μg/mL = C) | A (MIC's of 1.0 μg/mL or less = A) | A (MIC's of 1.0 μg/mL or less = A) | A (MIC's of 1.0 μg/mL or less = A) | C (MIC's of greater than 8.0 μg/mL = C) | C (MIC's of greater than 8.0 μg/mL = C) | A (MIC's of 1.0 μg/mL or less = A) |  |  |  |  |  |  |  |  |  |  | B (MIC's of greater than 1.0 μg/mL to 8.0 μg/mL = B) | B (MIC's of greater than 1.0 μg/mL to 8.0 μg/mL = B) |
| NCC1CCN2c3c(F)cc4c(=O)c(C(=O)O)cn(C5CC5)c4c3C=CCC12.O=C(O)C(F)(F)F (racemic) [24/rac-16, (7aS*,8S*)-8-(Aminomethyl)-4-cyclopropyl-12-fluoro-1-oxo-4,7,7a,8,9,10-hexahydro-1H-pyrrolo[1′,2′:1,7]aze-pino-[2,3-h]quinoline-2-carboxylic acid trifluoroacetate] | C (MIC's of greater than 8.0 μg/mL = C) | B (MIC's of greater than 1.0 μg/mL to 8.0 μg/mL = B) | A (MIC's of 1.0 μg/mL or less = A) | A (MIC's of 1.0 μg/mL or less = A) | A (MIC's of 1.0 μg/mL or less = A) | C (MIC's of greater than 8.0 μg/mL = C) | C (MIC's of greater than 8.0 μg/mL = C) | A (MIC's of 1.0 μg/mL or less = A) |  |  |  |  |  |  |  |  |  |  | B (MIC's of greater than 1.0 μg/mL to 8.0 μg/mL = B) | B (MIC's of greater than 1.0 μg/mL to 8.0 μg/mL = B) |
| NCC1CCN2c3c(F)cc4c(=O)c(C(=O)O)cn(C5CC5)c4c3CCCC12.O=C(O)C(F)(F)F (racemic) [24/rac-17, (7aS*,8S*)-8-(Aminomethyl)-4-cyclopropyl-12-fluoro-1-oxo-4,5,6,7,7a,8,9,10-octahydro-1H-pyrrolo[1′,2′:1,7]-azepino[2,3-h]quinoline-2-carboxylic acid trifluoroacetate] | C (MIC's of greater than 8.0 μg/mL = C) | B (MIC's of greater than 1.0 μg/mL to 8.0 μg/mL = B) | A (MIC's of 1.0 μg/mL or less = A) | A (MIC's of 1.0 μg/mL or less = A) | A (MIC's of 1.0 μg/mL or less = A) | C (MIC's of greater than 8.0 μg/mL = C) | C (MIC's of greater than 8.0 μg/mL = C) | A (MIC's of 1.0 μg/mL or less = A) |  |  |  |  |  |  |  |  |  |  | B (MIC's of greater than 1.0 μg/mL to 8.0 μg/mL = B) | B (MIC's of greater than 1.0 μg/mL to 8.0 μg/mL = B) |
| O=C(O)c1cn(C2CC2)c2c3c(c(F)cc2c1=O)N1CCC[C@H]1CCC3 [1/10] |  |  |  |  |  |  |  |  | > 8 | > 8 | 1 to 8 (≈ 2.81 to 22.4 µM) | 1 to 8 (≈ 2.81 to 22.4 µM) | ≤ 1 | ≤ 1 | > 8 | > 8 | > 8 | ≤ 1 |  |  |
| N[C@H]1C[C@H]2CN=Cc3c(c(F)cc4c(=O)c(C(=O)O)cn(C5CC5)c34)N2C1.O=C(O)C(F)(F)F [5/10, (3aS,5S)-5-amino-13-cyclopropyl-8-fluoro-10-oxo-3a,4,5,6,10,13-hexahydro-3H-pyrrolo[2′,′:3,4][1,4]diazepino[5,6-h]quinoline-11-carboxylic acid trifluoroacetate] | C (MIC's of greater than 8.0 μg/mL = C) | C (MIC's of greater than 8.0 μg/mL = C) | B (MIC's of greater than 1.0 μg/mL to 8.0 μg/mL = B) | B (MIC's of greater than 1.0 μg/mL to 8.0 μg/mL = B) | B (MIC's of greater than 1.0 μg/mL to 8.0 μg/mL = B) | C (MIC's of greater than 8.0 μg/mL = C) | C (MIC's of greater than 8.0 μg/mL = C) | A (MIC's of 1.0 μg/mL or less = A) |  |  |  |  |  |  |  |  |  |  | C (MIC's of greater than 8.0 μg/mL = C) | B (MIC's of greater than 1.0 μg/mL to 8.0 μg/mL = B) |
| N[C@H]1C[C@H]2CNCc3c(c(F)cc4c(=O)c(C(=O)O)cn(C5CC5)c34)N2C1.O=C(O)C(F)(F)F.O=C(O)C(F)(F)F [5/11, (3aS,5S)-5-amino-13-cyclopropyl-8-fluoro-10-oxo-2,3,3a,4,5,6,10,13-octahydro-1H-pyrrolo[2′,1′:3,4][1,4]diazepino[5,6-h]quinoline-11-carboxylic acid bis(trifluoroacetate)] | C (MIC's of greater than 8.0 μg/mL = C) | C (MIC's of greater than 8.0 μg/mL = C) | B (MIC's of greater than 1.0 μg/mL to 8.0 μg/mL = B) | B (MIC's of greater than 1.0 μg/mL to 8.0 μg/mL = B) | B (MIC's of greater than 1.0 μg/mL to 8.0 μg/mL = B) | C (MIC's of greater than 8.0 μg/mL = C) | C (MIC's of greater than 8.0 μg/mL = C) | A (MIC's of 1.0 μg/mL or less = A) |  |  |  |  |  |  |  |  |  |  | C (MIC's of greater than 8.0 μg/mL = C) | B (MIC's of greater than 1.0 μg/mL to 8.0 μg/mL = B) |
| NC1CCN2c3c(F)cc4c(=O)c(C(=O)O)cn(C5CC5)c4c3COCC12.O=C(O)C(F)(F)F [6/7, (3aS,4R)-4-amino-13-cyclopropyl-8-fluoro-10-oxo-3a,4,5,6,10,13-hexahydro-1H,3H-pyrrolo[2′,1′:3,4][1,4]oxazepino[5,6-h]quinoline-1′-carboxylic acid trifluoroacetate] | C (MIC's of greater than 8.0 μg/mL = C) | A (MIC's of 1.0 μg/mL or less = A) | A (MIC's of 1.0 μg/mL or less = A) | A (MIC's of 1.0 μg/mL or less = A) | A (MIC's of 1.0 μg/mL or less = A) | B (MIC's of greater than 1.0 μg/mL to 8.0 μg/mL = B) | B (MIC's of greater than 1.0 μg/mL to 8.0 μg/mL = B) | A (MIC's of 1.0 μg/mL or less = A) |  |  |  |  |  |  |  |  |  |  | B (MIC's of greater than 1.0 μg/mL to 8.0 μg/mL = B) | A (MIC's of 1.0 μg/mL or less = A) |
| N[C@H]1C[C@H]2CCCc3c(c(F)cc4c(=O)c(C(=O)O)cn(C5CC5)c34)N2C1.O=C(O)C(F)(F)F [7B/17, (7aR,9S)-9-Amino-4-cyclopropyl-12-fluoro-1-oxo-4,5,6,7,7a,8,9,10-octahydro-1H-pyrrolo[1′,′:1,7]-azepino[2,3-h]quinoline-2-carboxylic acid trifluoroacetate] | C (MIC's of greater than 8.0 μg/mL = C) | B (MIC's of greater than 1.0 μg/mL to 8.0 μg/mL = B) | A (MIC's of 1.0 μg/mL or less = A) | A (MIC's of 1.0 μg/mL or less = A) | A (MIC's of 1.0 μg/mL or less = A) | C (MIC's of greater than 8.0 μg/mL = C) | B (MIC's of greater than 1.0 μg/mL to 8.0 μg/mL = B) | A (MIC's of 1.0 μg/mL or less = A) |  |  |  |  |  |  |  |  |  |  | B (MIC's of greater than 1.0 μg/mL to 8.0 μg/mL = B) | B (MIC's of greater than 1.0 μg/mL to 8.0 μg/mL = B) |

Second part, led by results:

| MIC APAE 054 [1] | MIC ASPN 1027 [2] | MIC AABA 1065 [3] | MIC ASAU 001 [5] | MIC ASPN 001 [6] | MIC AABA 1009 [7] | MIC AECO 066 [9] | MIC AECO 001 [10] | MIC ([1]; Pseudomonas aeruginosa, Table 2, read-out: MIC APAE 054) [µg/mL] | MIC ([2]; Streptococcus pneumoniae, Table 2, read-out: MIC ASPN 1027) [µg/mL] | MIC [3] [µg/mL] | MIC ([4]; Staphylococcus aureus, Table 2, read-out: MIC ASAU 1031) [µg/mL] | MIC [5] [µg/mL] | MIC ([6]; Streptococcus pneumoniae, Table 2, read-out: MIC ASPN 001) [µg/mL] | MIC ([7]; Acinetobacter baumannii, Table 2, read-out: MIC AABA 1009) [µg/mL] | MIC [8] [µg/mL] | MIC [9] [µg/mL] | MIC [10] [µg/mL] | SMILES | MIC ASAU 1031 [4] | MIC APAE 001 [8] |
| --- | --- | --- | --- | --- | --- | --- | --- | --- | --- | --- | --- | --- | --- | --- | --- | --- | --- | --- | --- | --- |
|  |  |  |  |  |  |  |  |  |  | > 8 |  | > 8 |  |  | > 8 | > 8 | > 8 | O=C1CC2CCCN2c2c(F)cc3c(=O)c(C(=O)O)cn(C4CC4)c3c2N1 (stereo not drawn) [32/3] |  |  |
|  |  |  |  |  |  |  |  |  |  | > 8 |  | 1 to 8 (≈ 2.9 to 23.2 µM) |  |  | > 8 | > 8 | > 8 | O=C(O)c1cn(C2CC2)c2c3c(c(F)cc2c1=O)N1CCCC1CO3 (stereo not drawn) [Comparative Compound 1, reference compound] |  |  |
